# Results: patent US20190117675A1, “Compositions And Methods To Treat And/Or Prevent Vision Disorders Of The Lens Of The Eye” (Helix Holding Company, priority 2014, published 2019)
# “Also recorded” adds a separate entry of the source.
# What was measured:
# [1] = molecular target: T1, αB-crystallin R120G mutant (Homo sapiens, UniProt P02511, R120G); assay: Negative-stain EM of aggregates treated with sterol in liposome; type: biochemical; conditions: negatively stained EM
# T1 construct: made in house
# T1 sequence (P02511 1-175 R120G): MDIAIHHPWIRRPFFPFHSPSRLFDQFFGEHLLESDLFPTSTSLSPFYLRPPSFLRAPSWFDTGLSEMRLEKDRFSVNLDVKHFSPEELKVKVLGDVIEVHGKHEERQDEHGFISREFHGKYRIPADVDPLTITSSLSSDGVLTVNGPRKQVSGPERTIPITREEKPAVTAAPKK
# Protocol: Representative negatively stained EM pictures of the aggregates of αB-crystallin R120G mutant treated by liposome, lanosterol in liposome and cholesterol in liposome, respectively. The EM samples were stained by 1.25% uranyl acetate.
# Quantitative analysis was performed by calculating the number of particles with length over 50 nm from six randomly picked viewing field. Each viewing field contained 30-50 particles.
# The aggregates of the WT and mutated αA- and αB-crystallin proteins were obtained by heating the proteins solutions containing 1 M guanidine chloride (ultrapure, Sigma) with a concentration of 5 mg/ml at 60° C. for 48 h. The aggregates of the WT and mutated β- and γ-crystallins were prepared by heating the protein solutions at pH 3 and 37° C. for 48 h. The formation of aggregates was confirmed by turbidity (absorbance at 400 nm) and transmission electron microscope (EM) measurements. The preformed aggregates were resuspended in 20 mM PBS with a final concentration of 0.1 mg/ml (approximately 5 μM). The resuspended aggregates were treated by 50 μM lanosterol or cholesterol in liposomes formed by 50 μM DPPS at 37° C. […] The soluble proteins were determined by centrifuge the protein solutions to separate the supernatant and precipitation fractions. Then the protein concentration in the supernatant was determined by the Bradford method. […]
# dog eyes with cataracts = assay: Treatment of cataract lenses in dogs; type: in vivo; conditions: dog eyes treated with lanosterol for 6 weeks (intravitreal nanoparticles plus eye drops three times daily)
# Protocol: Grading System of Dog Cataract • Grade 0: absence of opacification (no cataract); • Grade 1: a slight degree of opacification (incipient stage); • Grade 2: presence of diffuse opacification involving almost the entire lens (immature stage); • Grade 3: presence of extensive thick opacification involving the entire lens (mature stage)
# To assess the effect of lanosterol treatment on cataract in live animals, left eye of dogs with bilateral cataract were treated for topical eye drops. The right eye of each animal was administered one drop of vehicle, 3 times a day so that the drop coated the eye. One drop of lanosterol was administered to the left eye of each animal in the same manner. Both eyes of some control animals were treated for vehicle. […] Each lens was recorded by photography. Degree of cataract was assessed using AREDS cataract grading system.
# This study was approved by TACUC of Zhongshan Ophthalmic Center and West China Hospital. […] Degree of cataract was assessed by a blinded examiner and scored based on canine cataract stage, shown below. Improvements in lens clarity and transparency were quantified. […]
# The mixture solution was then stirred for 2 h to allow the nanoparticles to form and the acetonitrile to evaporate. […] The loading yield of lanosterol was quantified by high performance liquid chromatography.
# [2] = test system: aA-crystallin-Y118D and aB-crystallin-R120G; assay: Dissolving of accumulated crystal protein in cells carrying two crystallin mutant plasmids; type: cell-based; conditions: 10 uM, compared with 1% DMSO solution
# Protocol: FIG. 13. Two mutant crystal proteins were introduced into cells. The accumulated crystal protein were treated by adding different agents.
# Cyclopentanoperhy drophenanthrene compounds of the present invention refers to a compound containing cyclopentanoperhy drophenanthrene skeleton structure, including its derivatives. After the two crystal protein mutant plasmid aA-crystallin-Y118D and aB-crystallin-R120G were introduced into cells, we investigated the lanosterol and its derivatives as well as cholesterol (Cholesterol) for their effects on intracellular accumulation of crystal protein. Not all cyclopentanoperhy drophenanthrene compound have the same effect.
smiles,measurement,setting,value
CC(C)=CCC[C@@H](C)[C@H]1CC[C@@]2(C)C3=C(CC[C@]12C)[C@@]1(C)CC[C@H](O)C(C)(C)[C@@H]1CC3 [Lanosterol],dissociation of aggregates formed by αB-crystallin R120G mutant (number of particles with length over 50 nm),[1],dissociates the aggregates
same,cataract severity and lens clarity,dog eyes with cataracts,reduced cataract severity and increased lens clarity
same,dissolving of accumulated crystal protein,[2],significantly dissolve accumulated crystals protein; also recorded: significant dissolving of the accumulated crystal protein
